Four compounds from paper PMC6161288, “Bioavailability of Eurycomanone in Its Pure Form and in a Standardised Eurycoma longifolia Water Extract” (Pharmaceutics, 2018) can be followed below.

One series in a line: Aqueous solubility. The class given is physicochemical. On the procedure: The aqueous […] was estimated by adding 10 µL of eurycomanone stock solution (10 mM) to 490 µL of aqueous buffer at pH 5.4, pH 7.4 and DMSO in triplicates in deep-well plates. […] The plate was kept on a shaker (300 rpm) at room temperature for 16 h. The plate was then centrifuged at 25 °C, 4000 rpm for 25 min. The supernatant was transferred and analysed using LC-MS/MS.
Peak area 1 = peak area of the compound in 2% DMSO at the different pH levels.
Peak area 2 = peak area of the compound in 100% DMSO.

A short description of series [1]: Lipophilicity, shake flask method with octanol and buffer (pH 7.4). The class given is physicochemical. The conditions noted are these: pH 7.4. On the procedure:
The lipophilicity of eurycomanone was estimated using the shake flask method with octanol and buffer (pH 7.4). Eurycomanone (5 µL) at 5 mM concentration is added to octanol (495 µL) and DMSO (495 µL) and also into the aqueous and octanol phase in a 1:1 ratio ([…] of octanol phase and 247.5 µL of aqueous phase). The octanol and aqueous phases were prepared using a saturation process, where equal amounts of D-PBS (pH 7.4) and octanol were saturated (300 rpm, room temperature) for 24 h before being separated and kept at room temperature. The prepared mixtures were vortexed and kept on the shaker (300 rpm) at room temperature for 16 h. The mixtures were allowed to stand for 30 min, and 200 µL of solution was transferred and sent for HPLC analysis.

A short description of series [2]: Caco-2 cell permeability assay. The conditions noted are these: human, Caco-2, Efflux Ratio. It counts as in vitro ADME. On the procedure: The Caco-2 assay was carried out after seeding the cells onto the membrane to form a confluent monolayer in 21 days. The media is removed from apical (A) and basolateral (B) chambers and the membrane is washed with HBSS buffer. Eurycomanone (10 µM, 200 µL) was added to the A compartment (which represents the intestinal lumen), and buffer (300 µL) was added to the B compartment (representing the blood), and vice versa. The plate was kept in a shaking incubator (37 °C) for 1 h. The amount of eurycomanone that had permeated across the cells was measured by LC-MS/MS, and the apparent permeability (Papp) values and efflux ratio were calculated. The expression of P-glycoprotein (P-gp) by differentiated Caco-2 cells was confirmed by measuring the Papp value and efflux ratio of vinblastine with and without the presence of a competing P-gp substrate, cyclosporine A. Eurycomanone was also measured with the presence of cyclosporine A to investigate whether eurycomanone may be transported via P-gp transporters.
On the technique in general: Caco-2 cells form a polarised layer with tight junctions and transporters.

Structures can show the parent of a compound that is named as a salt.

Turning to `C[C@]12CC[C@@H]3c4ccc(O)cc4CC[C@H]3[C@@H]1C[C@@H](O)[C@@H]2O` [Estriol, estriol, reference compound], the Aqueous solubility result in “Aqueous solubility” (pH 5.4) and in the series “Aqueous solubility” (pH 7.4) was “moderate solubility” each time. The compound also had a logD at 16 h in series [1] of 2.82.
Take `CC[C@]1(O)C[C@@H]2CN(CCc3c([nH]c4ccccc34)[C@@](C(=O)OC)(c3cc4c(cc3OC)N(C)[C@H]3[C@@](O)(C(=O)OC)[C@H](OC(C)=O)[C@]5(CC)C=CCN6CC[C@]43[C@@H]65)C2)C1` [Vinblastine, vinblastine, reference compound]: in series [2], the efflux ratio at 1 h, 10 µM was 14.7.
Take `CC/C(=C(/CC)c1ccc(O)cc1)c1ccc(O)cc1` [diethylstilbestrol]: the log distribution coefficient (logD) at 16 h in series [1] worked out at 3.18.
As for `COCCc1ccc(OCC(O)CNC(C)C)cc1` (stereo not drawn) [metoprolol, metoprolol tartrate], in series [1], the logD at 16 h is -0.29.

A word on the logD: it is the decadic logarithm of the distribution of all forms, ionised or not, between an organic phase and buffer at a given pH. Low values mean a more hydrophilic compound, high ones a more lipophilic compound. For orientation: efflux ratio means the permeability from basolateral to apical divided by that in the opposite direction, in the common usage.
